# Reference: patent US11214803B2, “Modulators of YAP1 expression” (Ionis Pharmaceuticals, Inc., priority 2019, dated 2022)
# pIC50: −log10 of the molar value. Strand notation (5' to 3'): a small letter for the sugar, then the base; units joined by * are phosphorothioate-linked, units joined directly phosphodiester-linked; [ ] holds rarer units or linkages, { } end groups; capitals alone tell only the bases. e = 2'-O-(2-methoxyethyl) (MOE); k = constrained ethyl (cEt); [5mC] = 5-methylcytosine; d = 2'-deoxy (DNA); m = 2'-O-methyl
# Test system: Yap1 mRNA
# Assay: Dose-dependent inhibition of human Yap1 in SNU-449 cells (Example 9, RTS36584)
# Format: cell-based
# Settings: free uptake; for % UTC (Yap1 mRNA): approximately 48 hours; for pIC50: linear regression on a log/linear plot
# How it was run: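 SNU-449 cells (10,000/well) took up modified oligonucleotides by free uptake at a range of doses for about 48 h. Yap1 mRNA was quantified with primer-probe set RTS36584, normalised to RIBOGREEN total RNA and expressed as % untreated control; IC50 from linear regression on log/linear plot.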
Substance,% UTC (Yap1 mRNA) (31.3 nM),% UTC (Yap1 mRNA) (125.0 nM),% UTC (Yap1 mRNA) (500.0 nM),% UTC (Yap1 mRNA) (2000.00 nM),pIC50
1198959 (kA*kG*dT*dG*dT*dA*dT*dG*dT*d[5mC]*dA*kG*dA*kA*dG*kA; antisense) [compound 1198959],62 % UTC,28 % UTC,8 % UTC,2 % UTC,7.40
"1198398 (G_{ks}^{m}C_{ds}A_{ds}C_{ds}T_{ds}T_{ds}T_{ds}T_{ds}A_{ds}^{m}C_{ds}A_{ds}T_{ks}T_{es}A_{ks}G_{es}G_{k}; cEt, 2'-MOE, 5-methylcytosine, phosphorothioate modifications, as printed in the source, key not given here) [compound 1198398]",73 % UTC,55 % UTC,33 % UTC,18 % UTC,6.70
1198552 (kA*kG*kA*dG*dT*dA*dT*dG*dT*dG*dG*d[5mC]*kA*kA*kT*eA; antisense) [compound 1198552],72 % UTC,46 % UTC,23 % UTC,9 % UTC,7.00
1198857 (kT*k[5mC]*dT*dT*dA*dT*dA*dT*dG*dG*dT*kT*eT*kT*eG*kT) [compound 1198857],78 % UTC,44 % UTC,13 % UTC,4 % UTC,7.00
1198610 (kT*kG*kT*dA*dT*dG*dT*d[5mC]*dA*dG*dA*dA*kG*kA*kG*eT; antisense) [compound 1198610],69 % UTC,29 % UTC,7 % UTC,2 % UTC,7.00
1198856 (k[5mC]*kT*dT*dA*dT*dA*dT*dG*dG*dT*dT*kT*eT*kG*eT*kG; antisense) [compound 1198856],72 % UTC,55 % UTC,24 % UTC,7 % UTC,7.00
1198356 (kT*kA*kA*dA*dG*dT*dG*dT*dA*dT*dG*dT*k[5mC]*eA*kG*eA; antisense) [compound 1198356],85 % UTC,30 % UTC,7 % UTC,1 % UTC,7.00
1197312 (kT*kG*kT*dA*mU*dG*dT*d[5mC]*dA*dG*dA*dA*dG*kA*kG*kT; antisense) [compound 1197312],101 % UTC,58 % UTC,34 % UTC,11 % UTC,6.52
1197217 (kT*kT*kA*dA*dA*dG*dT*dG*dT*dA*dT*dG*dT*k[5mC]*kA*kG) [compound 1197217],66 % UTC,39 % UTC,14 % UTC,4 % UTC,7.00
1197214 (kA*kG*kT*dG*dT*dA*dT*dG*dT*d[5mC]*dA*dG*dA*kA*kG*kA; antisense) [compound 1197214],88 % UTC,31 % UTC,7 % UTC,1 % UTC,7.00
1198507 (kT*kT*dA*dT*dA*dT*dG*dG*dT*dT*dT*eT*kG*eT*kG*eT; antisense) [compound 1198507],83 % UTC,57 % UTC,29 % UTC,13 % UTC,6.70
1095593 (kT*kG*dA*dG*dG*dT*dA*dT*dA*dA*d[5mC]*eT*eG*eG*kG*k[5mC]; antisense) [compound 1095593],73 % UTC,44 % UTC,27 % UTC,10 % UTC,7.00
1198382 (kT*dT*dA*dG*dA*dG*dT*dA*dT*dG*dT*kG*eG*k[5mC]*eA*kA; antisense) [compound 1198382],77 % UTC,56 % UTC,36 % UTC,18 % UTC,6.70
1200785 (kA*kT*kT*dG*dT*mC*dT*d[5mC]*dA*dT*dG*d[5mC]*d[5mC]*kT*kT*kA; antisense) [compound 1200785],98 % UTC,73 % UTC,42 % UTC,24 % UTC,6.40
1200794 (kA*kG*kA*dG*dT*mA*dT*dG*dT*dG*dG*d[5mC]*dA*kA*kT*kA; antisense) [compound 1200794],85 % UTC,59 % UTC,31 % UTC,13 % UTC,6.70
1198611 (kA*kG*kT*dG*dT*dA*dT*dG*dT*d[5mC]*dA*dG*kA*kA*kG*eA; antisense) [compound 1198611],37 % UTC,19 % UTC,4 % UTC,1 % UTC,> 7.52

Substance,% UTC (Yap1 mRNA) (31.3 nM),% UTC (Yap1 mRNA) (125.0 nM),% UTC (Yap1 mRNA) (500.0 nM),% UTC (Yap1 mRNA) (2000.00 nM),pIC50
1200803 (kG*kG*kT*dA*dT*mA*dA*d[5mC]*dT*dG*dG*dG*d[5mC]*kA*kA*kA; antisense) [compound 1200803],72 % UTC,52 % UTC,34 % UTC,18 % UTC,6.70
1198719 (kG*eG*kA*dA*dA*dT*dT*dG*dT*d[5mC]*dT*d[5mC]*eA*eT*kG*k[5mC]; antisense) [compound 1198719],67 % UTC,30 % UTC,9 % UTC,3 % UTC,7.00
1198287 (kA*kA*kA*dT*dT*dG*dT*d[5mC]*dT*d[5mC]*dA*dT*kG*e[5mC]*k[5mC]*eT; antisense) [compound 1198287],95 % UTC,68 % UTC,36 % UTC,16 % UTC,6.52
1200862 (kT*kT*kT*dA*dA*mA*dG*dT*dG*dT*dA*dT*dG*kT*k[5mC]*kA; antisense) [compound 1200862],88 % UTC,64 % UTC,35 % UTC,13 % UTC,6.70
"1198569 (CACTTTTACATTAGGA; modified gapmer, chemistry not fully specified) [compound 1198569]",71 % UTC,45 % UTC,22 % UTC,14 % UTC,7.00
1198528 (kT*kA*dA*dA*dG*dT*dG*dT*dA*dT*dG*eT*k[5mC]*eA*kG*eA; antisense) [compound 1198528],87 % UTC,54 % UTC,30 % UTC,11 % UTC,6.70
1198960 (kA*kA*dG*dT*dG*dT*dA*dT*dG*dT*d[5mC]*kA*dG*kA*dA*kG; antisense) [compound 1198960],77 % UTC,35 % UTC,8 % UTC,2 % UTC,7.00
1198554 (kT*kT*kA*dG*dA*dG*dT*dA*dT*dG*dT*dG*kG*k[5mC]*kA*eA; antisense) [compound 1198554],72 % UTC,46 % UTC,22 % UTC,8 % UTC,7.00
1197229 (kG*kG*kA*dA*mA*dT*dT*dG*dT*d[5mC]*dT*d[5mC]*dA*kT*kG*k[5mC]; antisense) [compound 1197229],54 % UTC,32 % UTC,16 % UTC,7 % UTC,7.52
1198492 (kG*k[5mC]*dT*dT*dT*dG*dG*dA*dA*dG*dA*eT*k[5mC]*eT*kG*eA; antisense) [compound 1198492],67 % UTC,39 % UTC,19 % UTC,10 % UTC,7.00
1198961 (kA*kA*dA*dG*dT*dG*dT*dA*dT*dG*dT*k[5mC]*dA*kG*dA*kA; antisense) [compound 1198961],77 % UTC,35 % UTC,11 % UTC,3 % UTC,7.00
1198355 (kA*kA*kA*dG*dT*dG*dT*dA*dT*dG*dT*d[5mC]*kA*eG*kA*eA; antisense) [compound 1198355],63 % UTC,34 % UTC,10 % UTC,4 % UTC,7.00
1198526 (kA*kA*dG*dT*dG*dT*dA*dT*dG*dT*d[5mC]*eA*kG*eA*kA*eG; antisense) [compound 1198526],61 % UTC,30 % UTC,8 % UTC,2 % UTC,7.40
1197213 (kT*kG*kT*dA*dT*dG*dT*d[5mC]*dA*dG*dA*dA*dG*kA*kG*kT; antisense) [compound 1197213],87 % UTC,46 % UTC,14 % UTC,2 % UTC,7.00
1198877 (kT*kT*dA*dA*dA*dG*dT*dG*dT*dA*dT*kG*eT*k[5mC]*eA*kG; antisense) [compound 1198877],62 % UTC,32 % UTC,13 % UTC,5 % UTC,7.30
